Laboratory results as given in patent US11667667B2, “Steroid derivative FXR agonist” (Chia Tai Tianqing Pharmaceutical Group Co., Ltd., priority 2016, dated 2023).

System: not listed separately
Assay: Liver-blood ratio experiment of mice via cassette dosing
Type: in vivo, mice (C57BL/6J)
Conditions: oral cassette 2 mg/kg, 0.5 h
Experimental: Liver-Blood Ratio Experiment of Mice Via Cassette Dosing
6 male mice (C57BL/6J) were grouped as an oral administration group. 5 kinds of the developed drugs were contained in the formulation, and intragastrical administration was performed at a dose of 2 mg/kg/compound (the vehicle was 0.5% HPMC aqueous solution). The five compounds were firstly and respectively dissolved in the vehicle, and sonicated or whirled to form a 1 mg/mL solution (clear solution or suspension), respectively; and then the solutions of the five compound were mixed in equal volumes (1:1:1:1:1, v:v:v:v:v) into a glass bottle. After intragastrical oral administration, plasma and liver tissue samples were collected from 3 animals at 0.5 h after administration; corresponding samples were collected from the other 3 animals at 3 h after administration. After collection, the liver tissue was homogenized by using ice-cold homogenization buffer (methanol:15 mM PBS buffer (pH 7.4)=1:2, v:v) based on the ratio of liver weight:homogenization buffer volume=1:3. Plasma and liver tissue samples were analyzed by using a five-in-one LC-MS/MS analysis method developed in advance. The concentrations of plasma and liver tissue homogenate were obtained, and the concentration ratios of liver tissue to plasma were calculated by using Excel.

Compound | Concentration in liver [nM] | Concentration in plasma [nM] | Concentration ratio of liver to plasma
CC[C@H]1[C@@H](O)[C@@H]2[C@H](CC[C@]3(C)[C@@H]([C@H](C)CCOc4ncccc4C(=O)O)CC[C@@H]23)[C@@]2(C)CC[C@@H](O)C[C@@H]12 [Example 26] | 3904 | 387 | 10

Same assay, conditions: oral cassette 2 mg/kg, 3 h

Compound | Concentration in liver [nM] | Concentration in plasma [nM] | Concentration ratio of liver to plasma
CC[C@H]1[C@@H](O)[C@@H]2[C@H](CC[C@]3(C)[C@@H]([C@H](C)CCOc4ncccc4C(=O)O)CC[C@@H]23)[C@@]2(C)CC[C@@H](O)C[C@@H]12 [Example 26] | 358 | 18 | 20

Same assay, conditions: oral, same dosage, at 0.5 h

Compound | drug concentration in the liver compared with control compound
CC[C@H]1[C@@H](O)[C@@H]2[C@H](CC[C@]3(C)[C@@H]([C@H](C)CCOc4ncccc4C(=O)O)CC[C@@H]23)[C@@]2(C)CC[C@@H](O)C[C@@H]12 [Example 26] | higher

Same assay, conditions: oral, same dosage, at 0.5 h and 3 h

Compound | liver/blood concentration ratios compared with control compound
CC[C@H]1[C@@H](O)[C@@H]2[C@H](CC[C@]3(C)[C@@H]([C@H](C)CCOc4ncccc4C(=O)O)CC[C@@H]23)[C@@]2(C)CC[C@@H](O)C[C@@H]12 [Example 26] | higher

Target: T1, Glutathione-S-transferase-labeled FXR human protein (Homo sapiens, UniProt Q96RI1)
T1 construct: purchased Invitrogen
T1 sequence (Q96RI1 1-486): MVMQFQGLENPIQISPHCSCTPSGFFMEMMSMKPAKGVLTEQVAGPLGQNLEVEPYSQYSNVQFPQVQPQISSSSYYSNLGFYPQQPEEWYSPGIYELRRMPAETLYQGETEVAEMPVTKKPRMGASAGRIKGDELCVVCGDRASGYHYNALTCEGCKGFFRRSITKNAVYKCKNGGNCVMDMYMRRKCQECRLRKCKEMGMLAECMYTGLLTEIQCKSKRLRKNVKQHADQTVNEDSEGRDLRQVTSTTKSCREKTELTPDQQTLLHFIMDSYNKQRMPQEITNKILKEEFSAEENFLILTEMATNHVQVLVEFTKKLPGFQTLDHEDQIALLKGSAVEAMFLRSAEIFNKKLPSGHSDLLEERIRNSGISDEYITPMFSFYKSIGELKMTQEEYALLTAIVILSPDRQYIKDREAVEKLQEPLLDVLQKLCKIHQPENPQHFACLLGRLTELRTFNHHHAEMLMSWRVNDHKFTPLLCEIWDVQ
Assay: FXR biochemical experiment (AlphaScreen, coactivator recruitment)
Conditions: AlphaScreen, GST-FXR human protein + biotin-labeled steroid receptor coactivator; read-out: FXR enzyme activity EC50
Experimental: FXR Biochemical Experiment Experimental Purpose: The activation effect of the compound on FXR binding reaction was detected by AlphaScreen. […] Protein: Glutathione-S-transferase-labeled FXR human protein (Invitrogen) 2. Co-activator: Biotin-labeled steroid receptor coactivator (Anaspec) 3. […] Compound Dilution: The compound to be tested was prepared as a 40 μM DMSO solution, and then diluted 3-fold to 10 concentration points. The reference compound was prepared as a 400 μM DMSO solution, and then diluted 1.5-fold to 10 concentration points. The diluted DMSO solution was added to the wells of a 384-well plate in a volume of 150 nL per well. 2. […] 4. […] The operation during the experimental process was protected from light. The incubation was performed for 1 hour at room temperature. 5. […] The operation during the experimental process was protected from light. The incubation was performed for 1 hour at room temperature. 6. EC50 test: Envision was used with excitation at 680 nm to read the […] signals at 520-620 nm. 7. Analytical data: The data were analyzed via using Prism 5.0, and the EC50 values of the activation effects of the compounds were calculated.

Compound | EC50 [nM]
CC[C@H]1[C@@H](O)[C@@H]2[C@H](CC[C@]3(C)[C@@H]([C@H](C)CCN4CC(C(=O)O)CCC4=O)CC[C@@H]23)[C@@]2(C)CC[C@@H](O)C[C@@H]12 (some centres unmarked) [Example 1] | 900
CC[C@@H]1C2C[C@H](O)CC[C@]2(C)[C@H]2CC[C@]3(C)[C@@H]([C@H](C)CCn4cc(C(=O)O)cn4)CC[C@H]3[C@@H]2[C@@H]1O (some centres unmarked) [Example 4] | 720
CC[C@H]1[C@@H](O)[C@@H]2[C@H](CC[C@]3(C)[C@@H]([C@H](C)CCn4cc(C(=O)O)ccc4=O)CC[C@@H]23)[C@@]2(C)CC[C@@H](O)C[C@@H]12 [Example 5] | 90
CC[C@H]1[C@@H](O)[C@@H]2[C@H](CC[C@]3(C)[C@@H]([C@H](C)CCn4ccc(C(=O)O)cc4=O)CC[C@@H]23)[C@@]2(C)CC[C@@H](O)C[C@@H]12 [Example 6] | 360
CC[C@H]1[C@@H](O)[C@@H]2[C@H](CC[C@]3(C)[C@@H]([C@H](C)CCOc4ncccc4C(=O)O)CC[C@@H]23)[C@@]2(C)CC[C@@H](O)C[C@@H]12 [Example 26] | 130

Same assay, conditions: ratio of highest signal of the compound to that of the reference compound; read-out: FXR enzyme activity Efficacy

Compound | Emax [%]
CC[C@H]1[C@@H](O)[C@@H]2[C@H](CC[C@]3(C)[C@@H]([C@H](C)CCN4CC(C(=O)O)CCC4=O)CC[C@@H]23)[C@@]2(C)CC[C@@H](O)C[C@@H]12 (some centres unmarked) [Example 1] | 320
CC[C@@H]1C2C[C@H](O)CC[C@]2(C)[C@H]2CC[C@]3(C)[C@@H]([C@H](C)CCn4cc(C(=O)O)cn4)CC[C@H]3[C@@H]2[C@@H]1O (some centres unmarked) [Example 4] | 334
CC[C@H]1[C@@H](O)[C@@H]2[C@H](CC[C@]3(C)[C@@H]([C@H](C)CCn4cc(C(=O)O)ccc4=O)CC[C@@H]23)[C@@]2(C)CC[C@@H](O)C[C@@H]12 [Example 5] | 134
CC[C@H]1[C@@H](O)[C@@H]2[C@H](CC[C@]3(C)[C@@H]([C@H](C)CCn4ccc(C(=O)O)cc4=O)CC[C@@H]23)[C@@]2(C)CC[C@@H](O)C[C@@H]12 [Example 6] | 375
CC[C@H]1[C@@H](O)[C@@H]2[C@H](CC[C@]3(C)[C@@H]([C@H](C)CCOc4ncccc4C(=O)O)CC[C@@H]23)[C@@]2(C)CC[C@@H](O)C[C@@H]12 [Example 26] | 280

Target: T2, FXR (FXR HEK 293T DA cell line) (Homo sapiens, UniProt Q96RI1)
T2 construct: expressed in transfected cells; host or cells: HEK 293T (FXR HEK 293T DA)
T2 sequence (Q96RI1 with tags, fused parts or gaps limits assumed): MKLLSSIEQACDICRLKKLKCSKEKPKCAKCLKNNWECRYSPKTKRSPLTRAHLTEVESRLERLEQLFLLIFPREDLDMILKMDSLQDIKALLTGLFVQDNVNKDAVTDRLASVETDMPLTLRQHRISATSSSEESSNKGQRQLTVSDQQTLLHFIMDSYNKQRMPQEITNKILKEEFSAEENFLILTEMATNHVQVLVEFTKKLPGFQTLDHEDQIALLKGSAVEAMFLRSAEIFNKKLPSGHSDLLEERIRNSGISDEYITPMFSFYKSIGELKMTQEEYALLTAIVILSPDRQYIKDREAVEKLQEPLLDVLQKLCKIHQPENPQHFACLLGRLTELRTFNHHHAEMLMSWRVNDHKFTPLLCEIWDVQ
Assay: FXR cell experiment (β-lactamase reporter gene, GeneBLAzer);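 for FXR cell activity Efficacy: Emax relative to maximal signal of reference agonist chenodeoxycholic acid (CDCA)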
Type: cell-based
Conditions: FXR HEK 293T DA cells, β-lactamase reporter, 16 hours
Experimental: Compound Dilution: The compound to be tested was prepared as a 100 μM DMSO solution, and then the compound was diluted 3-fold to 10 concentration points. The reference compound was prepared as a 100 μM DMSO solution, and then diluted 1.3-fold to 10 concentration points. The diluted DMSO solution was added to the wells of a 384-well plate in a volume of 200 nL per well. 2. […] The 384-well microplate was incubated at 37° C., 5% CO2 for 16 hours. 4. 6 μL of 1 mM LiveBLAzer™-FRET B/G (CCF4-AM) substrate was mixed with 60 μL of B solution and 934 μL of C solution, and added to the wells of the 384-well plate in a volume of 8 μL per well. […] The 384-well microplate was incubated in dark for 2 hours at room temperature. 6. […] 7.

Compound | EC50 [µM]
CC[C@H]1[C@@H](O)[C@@H]2[C@H](CC[C@]3(C)[C@@H]([C@H](C)CCN4CC(C(=O)O)CCC4=O)CC[C@@H]23)[C@@]2(C)CC[C@@H](O)C[C@@H]12 (some centres unmarked) [Example 1] | 17.9
CC[C@@H]1C2C[C@H](O)CC[C@]2(C)[C@H]2CC[C@]3(C)[C@@H]([C@H](C)CCn4cc(C(=O)O)cn4)CC[C@H]3[C@@H]2[C@@H]1O (some centres unmarked) [Example 4] | 1.87
CC[C@H]1[C@@H](O)[C@@H]2[C@H](CC[C@]3(C)[C@@H]([C@H](C)CCn4cc(C(=O)O)ccc4=O)CC[C@@H]23)[C@@]2(C)CC[C@@H](O)C[C@@H]12 [Example 5] | 0.57
CC[C@H]1[C@@H](O)[C@@H]2[C@H](CC[C@]3(C)[C@@H]([C@H](C)CCn4ccc(C(=O)O)cc4=O)CC[C@@H]23)[C@@]2(C)CC[C@@H](O)C[C@@H]12 [Example 6] | 5.16

Same assay, conditions: HEK-293T; read-out: FXR cell activity Efficacy

Compound | Emax [%]
CC[C@H]1[C@@H](O)[C@@H]2[C@H](CC[C@]3(C)[C@@H]([C@H](C)CCN4CC(C(=O)O)CCC4=O)CC[C@@H]23)[C@@]2(C)CC[C@@H](O)C[C@@H]12 (some centres unmarked) [Example 1] | 134
CC[C@@H]1C2C[C@H](O)CC[C@]2(C)[C@H]2CC[C@]3(C)[C@@H]([C@H](C)CCn4cc(C(=O)O)cn4)CC[C@H]3[C@@H]2[C@@H]1O (some centres unmarked) [Example 4] | 131
CC[C@H]1[C@@H](O)[C@@H]2[C@H](CC[C@]3(C)[C@@H]([C@H](C)CCn4cc(C(=O)O)ccc4=O)CC[C@@H]23)[C@@]2(C)CC[C@@H](O)C[C@@H]12 [Example 5] | 190
CC[C@H]1[C@@H](O)[C@@H]2[C@H](CC[C@]3(C)[C@@H]([C@H](C)CCn4ccc(C(=O)O)cc4=O)CC[C@@H]23)[C@@]2(C)CC[C@@H](O)C[C@@H]12 [Example 6] | 132
